This note sets out measurements from ChEMBL document CHEMBL5036328, “Nonpeptidic, Polo-Box Domain-Targeted Inhibitors of PLK1 Block Kinase Activity, Induce Its Degradation and Target-Resistant Cells” (J Med Chem, 2021).

Activity calls are given as the source filed them. The calls are words filed in the database; no cut-off is given here.

The target in assay [1] is T1, Serine/threonine-protein kinase PLK1 (Homo sapiens, UniProt P53350). Put plainly: Binding affinity to […] (unknown origin) using MAGPMQS[pT]PLNGAKK tracer peptide as substrate by fluorescence polarization binding assay.
For assay [2], the system named is PC-3. Put plainly: Antiproliferative activity against human PC-3 cells assessed as reduction in cell viability incubated for 72 hrs by MTT assay. In kind it is functional, cell-based. The note with it: PC-3, 72 h.
For the next assay, the system named is HeLa. Put plainly: Antiproliferative activity against human HeLa cells assessed as reduction in cell viability incubated for 72 hrs by MTT assay. In kind it is functional, cell-based.
The subject of assay [3] is HRPE. Put plainly: Antiproliferative activity against human RPE cells expressing wild-type PLK1 assessed as reduction in cell viability after 72 hrs by MTT assay. It is filed as functional, cell-based.
In assay [4] the test system is HRPE. Put plainly: Antiproliferative activity against human RPE cells expressing C67V mutant PLK1 assessed as reduction in cell viability after 72 hrs by MTT assay. In kind it is functional, cell-based.
The target of assay [5] is T1, Serine/threonine-protein kinase PLK1. Put plainly: Binding affinity to PLK1 in human PC-3 cells incubated for 2 hrs followed by heat shock for 10 mins by cellular thermal shift assay. In kind it is cell-based.
Assay [6] concerns HRPE. Put plainly: Antiproliferative activity against human RPE cells expressing wild type PLK1 assessed as reduction in cell viability upto 120 uM after 72 hrs by MTT assay. It is filed as functional, cell-based.
The target of assay [7] is T1, Serine/threonine-protein kinase PLK1. Put plainly: Inhibition of PLK1 in human PC-3 cells assessed as reduction in phosphorylation of TCTP at ser46 measured after 23 hrs in presence of colcemid by immunoblotting analysis. In kind it is cell-based.
The target is the same in assay [8]. Put plainly: Induction of PLK1 degradation in human PC-3 cells upto 60 uM measured after 23 hrs by Western blot analysis. In kind it is cell-based. The note with it: dose microM <=60, time 23.0 hrs.
Assay [9] deals with PC-3. Put plainly: Induction of cell cycle arrest in human PC-3 cells at 60 uM incubated for 23 hrs in presence of colcemid by flow cytometry analysis. In kind it is functional, cell-based.
Assay [10] has as its system HRPE. Put plainly: Antiproliferative activity against human RPE cells expressing C67V mutant PLK1 assessed as reduction in cell viability upto 120 uM after 72 hrs by MTT assay. In kind it is functional, cell-based.
The target of assay [11] is T1, Serine/threonine-protein kinase PLK1. Put plainly: Induction of PLK1 degradation in human DU-145 cells measured for 23 hrs by Western blot analysis. In kind it is cell-based. Conditions: dose 10-45 µM.
For assay [12] the target is unchanged. Put plainly: Induction of PLK1 degradation in human PC-3 cells measured for 23 hrs by Western blot analysis. In kind it is cell-based.
Assay [13] shares this target. Put plainly: Inhibition of PLK1 in human PC-3 cells assessed as reduction in phosphorylation of TCTP at ser46 measured after 23 hrs by immunoblotting analysis. It is filed as cell-based.
Assay [14] shares this target. Put plainly: Induction of PLK1 degradation in human PC-3 cells at 10 uM measured for 23 hrs by Western blot analysis relative to control. It is filed as cell-based.
Assay [15] has the same target. Put plainly: Induction of PLK1 degradation in human PC-3 cells at 30 uM measured for 23 hrs by Western blot analysis relative to control. It is filed as cell-based.
Assay [16] shares this target. Put plainly: Induction of PLK1 degradation in human PC-3 cells at 45 uM measured for 23 hrs by Western blot analysis relative to control. It is filed as cell-based.
Assay [17] shares this target. Put plainly: Induction of PLK1 degradation in human PC-3 cells at 10 uM pretreated with proteosome inhibitor MG132 for 1 hr followed by compound addition and measured after 23 hrs by Western blot analysis relative to control. Details: scale not given: the % may be the effect or the level left. In kind it is cell-based.
Assay [18] has the same target. Put plainly: Induction of PLK1 degradation in human PC-3 cells at 30 uM pretreated with proteosome inhibitor MG132 for 1 hr followed by compound addition and measured after 23 hrs by Western blot analysis relative to control. It is filed as cell-based. Further details: scale not given: the % may be the effect or the level left.
Assay [19] has the same target. Put plainly: Induction of PLK1 degradation in human PC-3 cells at 45 uM pretreated with proteosome inhibitor MG132 for 1 hr followed by compound addition and measured after 23 hrs by Western blot analysis relative to control. It is filed as cell-based. Further details: scale not given: the % may be the effect or the level left.
Assay [20] has the same target. Put plainly: Induction of PLK1 degradation in human PC-3 cells measured after 23 hrs in presence of colcemid by Western blot analysis. In kind it is cell-based. Conditions: dose 10-45 µM.
Assay [21] has as its system PC-3. Put plainly: Induction of cell cycle arrest in human PC-3 cells at 10 to 45 uM incubated for 23 hrs by flow cytometry analysis. In kind it is functional, cell-based. The note with it: dose 10-45 µM.
The subject of assay [22] is PC-3. Put plainly: Induction of cell cycle arrest in human PC-3 cells assessed as reduction in G2/M phase at 45 uM incubated for 23 hrs in presence of colcemid by flow cytometry analysis (reference value: 67%). It is filed as functional. Details: scale not given: the % may be the effect or the level left.

T1 sequence (P53350 whole entry): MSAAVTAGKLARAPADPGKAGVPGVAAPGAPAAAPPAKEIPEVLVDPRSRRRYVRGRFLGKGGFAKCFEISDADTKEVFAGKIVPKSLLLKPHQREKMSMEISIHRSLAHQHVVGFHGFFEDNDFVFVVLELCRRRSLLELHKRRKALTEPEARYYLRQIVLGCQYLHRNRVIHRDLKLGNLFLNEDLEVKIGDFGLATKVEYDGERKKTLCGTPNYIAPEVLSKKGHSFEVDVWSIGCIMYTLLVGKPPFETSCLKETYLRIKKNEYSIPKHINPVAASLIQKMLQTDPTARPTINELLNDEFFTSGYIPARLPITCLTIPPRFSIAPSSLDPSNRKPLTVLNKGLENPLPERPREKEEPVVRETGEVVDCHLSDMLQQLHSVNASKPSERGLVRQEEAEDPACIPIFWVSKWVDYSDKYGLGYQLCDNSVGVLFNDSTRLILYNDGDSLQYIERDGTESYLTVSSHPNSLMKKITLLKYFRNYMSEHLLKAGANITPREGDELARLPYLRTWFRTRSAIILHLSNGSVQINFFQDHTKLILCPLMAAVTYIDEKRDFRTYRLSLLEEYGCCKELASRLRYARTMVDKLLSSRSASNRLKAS

`CCCCCCCCCc1ccc(C(=O)Nc2ccc(C)cc2C(=O)O)cc1`: the values for the IC50 (in assay [1]; in the assay on PC-3 [2]; in the assay on HeLa) were 33.8 µM, 30 µM and 21.6 µM, respectively.

Turning to `Cc1ccc(C(=O)O)c(NC(=O)c2ccc(N)cc2)c1`, the IC50 in [1] was above 600 µM; in the assay on PC-3 [2], above 120 µM; in the assay with HeLa, above 120 µM.

Regarding `CCCCCCCCCc1ccc(C(=O)Nc2ccc(C)cc2C(=O)OC)cc1`, the IC50 in [1] was above 600 µM.

With `CCCCCCCCCCCCc1ccc(C(=O)Nc2ccc(C)cc2C(=O)O)cc1`, the IC50 in [1] is 26.1 µM; with PC-3 [2], 16.5 µM; with HeLa it was 10.7 µM. For the same compound, the outcome in the assay on HRPE [3] and in the assay on HRPE [4] was Active.

Consider `CCCCCCCCCc1ccc(C(=O)Nc2cc(C)ccc2C(=O)O)cc1`, for which the IC50 came out at 28 µM in [1] and 18.2 µM in the assay on PC-3 [2].

Turning to `CCCCCCCCNc1ccc(C(=O)Nc2cc(C)ccc2C(=O)O)cc1`, the values for the IC50 (in [1]; in the assay on PC-3 [2]) were 27.1 µM and 20 µM, respectively.

In the case of `CCCCCCCSc1ccc(C(=O)Nc2ccccc2C(=O)O)cc1`, the IC50 in assay [1] was 29 µM; in the assay on PC-3 [2], 27.9 µM.

As for `CCCCCCCCCc1ccc(C(=O)Nc2cc(C)ccc2C(=O)OC)cc1`, the IC50 is above 600 µM in [1], above 120 µM with PC-3 [2] and above 120 µM in the assay on HeLa. Also, the outcome (in assay [5] (time 130.0 min); in the assay with HRPE [6]; in [8]; with PC-3 [9]; with HRPE [10]) was inactive. The inhibition entry in [7] was “inactive”.

Consider `CCCCCCCCCCc1ccc(C(=O)Nc2ccc(C)cc2C(=O)O)cc1`, for which the IC50 amounted to 23.8 µM in assay [1], 22.8 µM in the assay with PC-3 [2] and 15.5 µM in the assay with HeLa.

As to `CCCCCCCCc1ccc(C(=O)Nc2ccc(C(F)(F)F)cc2C(=O)O)cc1`, the IC50 in the assay with PC-3 [2] amounted to 14.2 µM; in the assay with HeLa, 10.5 µM.

As to `CCCCCCCOc1ccc(C(=O)Nc2ccccc2C(=O)O)cc1`, the IC50 in assay [1] was determined as 37 µM; in the assay with PC-3 [2], 30 µM.

Consider `CCCCCCCCSc1ccc(C(=O)Nc2ccc(C)cc2C(=O)O)cc1`, for which the Activity result in assay [11] is “Dose-Dependent Effect”; in assay [12], “Dose-Dependent Effect”; in assay [14] it was 30%; in assay [15] it was 5%; in assay [16] it was 7%; in assay [17], 64%. Further, the Activity in assay [18] was 25%; in assay [19], 16%; in [20] it was “Dose-Dependent Effect”; with PC-3 [22] it was 20%. The IC50 in assay [1] was 26.8 µM; with PC-3 [2], 15 µM; in the assay on HeLa it was 12 µM. Moreover, the EC50 in assay [5] came out at 0.65 µM. The inhibition entry in assay [13] and in assay [7] was “Active” each time. Also, the outcome in the assay with PC-3 [21] was inactive.

Consider `CCCCCCCCSc1ccc(C(=O)Nc2cc(C)ccc2C(=O)O)cc1`, for which the figures for the IC50 (in assay [1]; in the assay with PC-3 [2]) were 28.1 µM and 26 µM, respectively.

Consider `CCCCCCCSc1ccc(C(=O)Nc2ccc(C)cc2C(=O)O)cc1`, for which the figures for the IC50 (in assay [1]; in the assay with PC-3 [2]; in the assay on HeLa) were 23.4 µM, 14.3 µM and 9.4 µM, respectively. Besides, the outcome in the assay on HRPE [3] and in the assay with HRPE [4] was Active.

For `CCCCCCCCNc1ccc(C(=O)Nc2ccc(C)cc2C(=O)O)cc1`, the IC50 in [1] is 73.2 µM; in the assay on PC-3 [2], 36.4 µM.

For the compound `CCCCCCCCOc1ccc(C(=O)Nc2cc(C)ccc2C(=O)O)cc1`, the IC50 was 29.8 µM in [1] and 19.3 µM with HeLa.

As to `CCCCCCCCCCCCc1ccc(C(=O)Nc2cc(C)ccc2C(=O)O)cc1`, the IC50 in assay [1] was 25.5 µM; with PC-3 [2], 17 µM.

As for `CCCCCCCNc1ccc(C(=O)Nc2ccc(C)cc2C(=O)O)cc1`, the IC50 amounted to 42 µM in [1], 31.3 µM in the assay with PC-3 [2] and 18.7 µM with HeLa.

For `CCCCCCCNc1ccc(C(=O)Nc2ccccc2C(=O)O)cc1`, the half-inhibitory concentration (IC50) was found to be 87.4 µM in assay [1] and 41.3 µM in the assay on PC-3 [2].

For the compound `CCCCCCCCOc1ccc(C(=O)Nc2ccc(C)cc2C(=O)O)cc1`, the figures for the IC50 (in assay [1]; in the assay with PC-3 [2]) were 28.6 µM and 21.8 µM, respectively.

On to `CCCCCCCOc1ccc(C(=O)Nc2ccc(C)cc2C(=O)O)cc1`, for which the IC50 in assay [1] came out at 34.4 µM; with PC-3 [2] it was 43 µM; in the assay on HeLa, 31.3 µM.
